# Test results from US10495571B2 (priority 2014, dated 2019).
# Conditions: CMD-3D layer without HSA, PBS buffer, drug cM1 0.00-50 μM, DMSO 0.5%, 5%
# Excerpt: The functional layer AF1 of the second sample region REG2 was otherwise similar to the functional layer AF1 of the first sample region REG1, except that the functional layer AF1 of the first sample region REG1 comprised HSA. […] B0b denotes the input beam impinging on the second sample region REG2, and B1b denotes the reflected beam reflected from the second sample region REG2. ZV2 denotes the sample volume of the second sample region REG2.
# Prior to the second test, the functional layer AF1 of the second sample region was formed by a method, which comprised: • attaching a layer of CMD-3D to the metal layer 120 of the sensor, • washing the layer of CMD-3D with an aqueous solution, which comprised 2M NaCl and 10 mM NaOH, • activating the layer of CMD-3D with an activation solution, which comprised EDC and NHS. • treating the layer of CMD-3D with an aqueous solution, which comprised MES (the bulk concentration of MES was 5 mM and pH 5.0), • deactivating the functional layer AF1 by exposing it to an aqueous solution, which comprised ethanolamine (pH 8.0). • washing the functional layer AF1 with an aqueous solution, which comprised 50 mM NaOH. […]
# The curve ϕAUX,CH2(t) may be calculated e.g. by using a modified equation (7h), where the parameter C may be determined by using a modified equation (7d), and the parameter D may be determined by using a modified equation (7i). […]
substance,measurement,value
indomethacine,"average value of the auxiliary angle ϕAUX,CH2(t) of the second sample region (reference, no HSA)",substantially independent of the bulk concentration cM1
